According to US4980377A, “1-(aminophenyl)-2-aminopropanone derivatives” (Laboratoire L. Lafon, priority 1984, dated 1990):
Entries after “also recorded” stand apart in the source; their conditions may differ. Structures can show the parent of a compound that is named as a salt.

What was measured:
[1] = tested on: mice; experiment: Overall behavior and reactivities in mice; type: in vivo, mouse; conditions: dose not stated
Method: (§1) In the neuropsychopharmacological study which follows, a solution of CRL 41 153 in distilled water (pH 1.5) was administered intraperitoneally in a volume of 20 ml/kg to male mice and 5 ml/kg to male rats.
(§2) Groups of three animals are observed before and then 0.25 hour, 0.50 hour, 1 hour, 2 hours, 3 hours and 24 hours after the administration of CRL 41 153.

[2] = tested on: rats; experiment: Overall behavior and reactivities in rats; type: in vivo, rat; conditions: dose not stated
Method: as §1, §2

[3] = tested on: mice; experiment: Interaction with apomorphine in mice; type: in vivo, mouse; conditions: i.p.
Method: Groups of 6 mice receive CRL 41 153 0.5 hour before the subcutaneous injection of 1 or 16 mg/kg of apomorphine.

[4] = tested on: rats; experiment: Interaction with apomorphine in rats; type: in vivo, rat; conditions: i.p.
Method: CRL 41 153 is administered to groups of 6 rats 0.5 hour before the subcutaneous injection of 0.5 mg/kg of apomorphine.

[5] = tested on: rats; experiment: Interaction with amphetamine; type: in vivo, rat; conditions: i.p.
Method: Amphetamine (2 mg/kg) is injected intraperitoneally into groups of 6 rats 30 minutes after the administration of CRL 41 153. […] 4 mg/kg and 16 mg/kg, CRL 41 153 potentiates the intensity and duration of the stereotypies induced by amphetamine.

[6] = tested on: mice; experiment: Interaction with reserpine; type: in vivo, mouse; conditions: i.p.
Method: Four hours after the intraperitoneal injection of 2.5 mg/kg of reserpine, groups of 6 mice receive CRL 41 153.

[7] = tested on: mice; experiment: Interaction with oxotremorine; type: in vivo, mouse; conditions: i.p.
Method: CRL 41 153 is administered to groups of 6 mice 0.5 hour before the intraperitoneal injection of 0.5 mg/kg of oxotremorine.

[8] = tested on: mice; experiment: Spontaneous motility; type: in vivo, mouse; conditions: i.p.
Method: 0.5 hour after they have received CRL 41 153, the mice (6 per dose, 12 control animals) are placed in an actimeter, where their motility is recorded for 30 minutes.

[9] = tested on: mice; experiment: Motility reduced by habituation to the enclosure; type: in vivo, mouse; conditions: i.p.
Method: After they have stayed In the actimeters for 18 hours, (he mice (6 per dose, 12 control animals) receive CRL 41 153. They are immediately returned to their respective enclosures and, half an hour later, their motility is recorded for 30 minutes.

[10] = tested on: mice; experiment: Motility reduced by hypoxic aggression; type: in vivo, mouse; conditions: i.p.
Method: Half an hour after they have received CRL 41 153, the mice (10 per dose, 20 control animals) are subjected to acute hypobaric anoxia [pressure reduction of 600 mm Hg (i.e. about 8×10^4 Pa) in 90 seconds; release of vacuum in 45 seconds] and are then placed in an actimeter, where their motility is recorded for 10 minutes.

[11] = tested on: mice; experiment: Interaction with barbital; type: in vivo, mouse; conditions: i.p., barbital 220 mg/kg
Method: Half an hour after the administration of CRL 41 153, groups of 10 mice receive an intraperitoneal injection of barbital (220 mg/kg).

[12] = tested on: mice; experiment: Behavioral despair; type: in vivo, mouse; conditions: forcibly immersed mice, i.p.
Excerpt: Half an hour after they have received CRL 41 153, groups of 6 mice are placed in a beaker filled with water to a height of 6 cm. The total period of immobility between the 2nd and 6th minutes following immersion is noted.

[13] = tested on: dogs; experiment: Cardiovascular study in anesthetized dogs; type: in vivo, dog
Method in brief: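 Nembutal-anaesthetized dogs (~14 kg) given CRL 41 194 (n=2) or CRL 41 221 (n=4) intraduodenally at successive 0.1, 0.5, 1, 2.5, 5 and 10 mg/kg doses. Blood pressure, heart rate, femoral and vertebral flow, rectal temperature measured; skin colour observed, plus bile colour (CRL 41 194).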

[14] = tested on: cellular and humoral immunity; experiment: Test for cells forming lysis areas; conditions: in vivo
[15] = tested on: cellular and humoral immunity; experiment: Delayed hypersensitivity to the red blood corpuscles of sheep; type: in vivo
[16] = tested on: man; experiment: Clinical study: treatment of depressions; type: in vivo, human
[17] = tested on: gravid White New Zealand female rabbits; experiment: Teratogenicity in gravid White New Zealand rabbits; type: in vivo, rabbit; conditions: day 5 to day 18 of gestation; for Affected foetuses, %: normal limit 1.5%
Method in brief: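 Fetuses harvested by cesarean on gestation day 29 were scored for number and for any malformation (limb blockade, anury, tail or skull defects, exencephaly).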

[18] = pH of solutions in distilled water; type: physicochemical
Method: The neuropsychopharmacological study was undertaken according to the procedures described above for CRL 41 153, CRL 41 213 being adminstered intraperitoneally, in solution in distilled water, in a volume of 20 ml/kg to male mice and a volume of 5 ml/kg to male rats, and the pH of the injected solution varying with the concentration of CRL 41 213 according to the data given in Table II below.

[19] = tested on: CNS; experiment: Neuropsychopharmacological profile as a whole; type: in vivo, mice and rats
Method: as §1

[20] = tested on: immunity; experiment: Immunological study (overall); conditions: in vivo; dihydrochloride
[21] = anesthetized dogs, intraduodenal

## CC(C(=O)c1ccc(N)cc1)N1CCOCC1 (stereo not shown) [CRL 41 237, 1-(4-aminophenyl)-2-morpholinopropanone dihydrochloride]
[1]
  Overall behavior: observed effects (summary): excitation with hyperreactivity in mice and rats
  Stereotype movements (summary): the presence of stereotype movements in mice and rats
[2]
  Overall behavior: observed effects (summary): excitation with hyperreactivity in mice and rats
  Stereotype movements (summary): the presence of stereotype movements in mice and rats
[3]
  Effect on hypothermia induced by apomorphine: antagonism of the hypothermia
[4]
  Effect on stereotypies induced by apomorphine: potentiation of the stereotypies
[5]
  Effect on stereotypies induced by amphetamine: potentiation of the stereotypies
[6]
  Effect on hypothermia induced by reserpine: antagonism of the hypothermia
  Effect on ptosis induced by reserpine: antagonism of the ptosis induced by reserpine
[7]
  Effect on hypothermic action of oxotremorine: antagonism of the hypothermia
  Effect on trembling induced by oxotremorine: antagonism of the trembling induced by oxotremorine
[8]
  Spontaneous motor activity: an increase in the spontaneous motor activity of mice
[9]
  Motor activity of mice accustomed to their enclosure: resumption in the motor activity of mice accustomed to their enclosure
[10]
  Motor recovery of mice after hypobaric hypoxia: improvement in the motor recovery
[11]
  Duration of the sleep induced by barbital: a reduction in the duration of the sleep induced by barbital
[12]
  Period of immobility due to despair: a reduction in the period of immobility
[13]; anesthetized dog, intravenous, additional 10 mg/kg
  Femoral flow: caused an increase in the femoral flow
[13]; anesthetized dogs
  Effect on hypertension induced by norepinephrine: distinctly increases the hypertension induced by norepinephrine
  Effects of isoprenaline (not further specified): does not modify the effects of isoprenaline
  Rectal temperature: The rectal temperature rises gradually
  Skin temperature: a large increase in the skin temperature
[13]; [21]
  Blood pressure: No action was observed on the blood pressure
  Femoral flow: No action was observed on the blood pressure, the femoral flow and the vertebral flow
  Heart rate: slight tachycardiac effect at 20 mg/kg
  Vertebral flow: No action was observed on the blood pressure, the femoral flow and the vertebral flow
[14]
  Activity in the test for cells forming lysis areas: strong activity according to the abovementioned test for cells forming lysis areas, at a dose of 100 mg/kg, administered orally
[15]
  Activity on the delayed hypersensitivity reaction: weaker activity on the abovementioned delayed hypersensitivity reaction to red blood corpuscles of sheep, at doses of 0.1 mg/kg to 10 mg/kg, administered orally
[16]
  Result in the treatment of depressions: good results were obtained by oral administration in the treatment of depressions at a daily dose of -0 mg
[17]; 5 mg/kg daily
  Affected foetuses, number: 0
  Total foetuses (live): 91
  Affected foetuses, %: 0%
[17]; 10 mg/kg daily
  Affected foetuses, number: 1
  Total foetuses (live): 96
  Affected foetuses, %: 1.04%
[17]; 50 mg/kg daily
  Affected foetuses, number: 1
  Total foetuses (live): 88
  Affected foetuses, %: 1.13%
[18]; 0.1 g/liter in distilled water
  pH: 5.0
[18]; 0.2 g/liter in distilled water
  pH: 4.5
[18]; 0.4 g/liter in distilled water
  pH: 4.0
[18]; 0.8 g/liter in distilled water
  pH: 3.5
[18]; 1.6 g/liter in distilled water
  pH: 3.0
[18]; 3.2 g/liter in distilled water
  pH: 2.5
[18]; 6.4 g/liter in distilled water
  pH: 2.0
[18]; 25 g/liter in distilled water
  pH: 1.5
[18]; 50 g/liter in distilled water
  pH: 1.0
[18]; ≤0.05 g/liter in distilled water
  pH: 5.5
[19]; conclusion of the tests
  Stimulant effects (overall): stimulant effects
  α-adrenergic stimulant effects (overall): effects showing peripheral α-adrenergic stimulation
[19]; conclusion of the tests, dihydrochloride
  Antidepressant effects (overall): good antidepressant; also recorded: antidepressant effects
[19]; species and dose not stated, dihydrochloride
  Peripheral α-adrenergic signs (mydriasis, salivation, lacrimation, exophthalmos): mydriasis
[20]
  Immunological effect (overall): immunostimulant or immunomodulating effects; also recorded: immunostimulant effects
